From ChEMBL document CHEMBL5143734, “Seco-Lupane Triterpene Derivatives Induce Ferroptosis through GPX4/ACSL4 Axis and Target Cyclin D1 to Block the Cell Cycle” (J Med Chem, 2022)

What was measured:
Assay type in all cases: functional, cell-based
MCF7 = test: Cytotoxicity against human MCF7 cells assessed as reduction in cell viability by CCK-8 assay
A549 = test: Cytotoxicity against human A549 cells assessed as reduction in cell viability by CCK-8 assay
PANC-1 = test: Cytotoxicity against human PANC-1 cells assessed as reduction in cell viability by CCK-8 assay
HepG2 = test: Cytotoxicity against human HepG2 cells assessed as reduction in cell viability by CCK-8 assay
PC-3M = test: Cytotoxicity against human PC-3M cells assessed as reduction in cell viability by CCK-8 assay

Compound | IC50 (MCF7) | IC50 (A549) | IC50 (PANC-1) | IC50 (HepG2) | IC50 (PC-3M)
C=C(C)[C@@H]1CC[C@]2(C(=O)OCCCCCn3cncn3)CC[C@]3(C)[C@H](C[C@@H](O)[C@@H]4[C@@]5(C)C(CC(=O)OC)OC(C)(C)C5CC[C@]43C)[C@@H]12 (stereo not given in full) | 81.6 µM | 57.9 µM | 90 µM | 37.2 µM | 32.3 µM
C=C(C)[C@@H]1CC[C@]2(C(=O)OCCCCCCn3ccnc3C)CC[C@]3(C)[C@H](C[C@@H](O)[C@@H]4[C@@]5(C)C(CC(=O)OC)OC(C)(C)C5CC[C@]43C)[C@@H]12 (stereo not given in full) | 29.9 µM | 25.4 µM | 18.7 µM | 12 µM | 20.9 µM
C=C(C)[C@@H]1CC[C@]2(C(=O)OCCCCCn3cncn3)CC[C@]3(C)[C@H](C[C@H]4OC(=O)C[C@@H](O)[C@]5(C)[C@@H]4[C@@]3(C)CC[C@H]5C(=C)C)[C@@H]12 | 108 µM | 18.7 µM | 41.6 µM | 38.3 µM | 54.3 µM
C=C(C)[C@@H]1CC[C@]2(C(=O)OCCCCn3cc(CCN)c4ccccc43)CC[C@]3(C)[C@H](C[C@@H](O)[C@@H]4[C@@]5(C)C(CC(=O)OC)OC(C)(C)C5CC[C@]43C)[C@@H]12 (stereo not given in full) | 6.25 µM | 7.05 µM | 6.42 µM | 1.7 µM | 5.66 µM
C=C(C)[C@@H]1CC[C@]2(C(=O)OCCCBr)CC[C@]3(C)[C@H](C[C@H]4OC(=O)C[C@@H](O)[C@]5(C)[C@@H]4[C@@]3(C)CC[C@H]5C(=C)C)[C@@H]12 | > 200 µM | 136 µM | > 200 µM | > 200 µM | 109 µM
C=C(C)[C@@H]1CC[C@]2(C(=O)OCCCCCCCCCCn3cncn3)CC[C@]3(C)[C@H](C[C@@H](O)[C@@H]4[C@@]5(C)C(CC(=O)OC)OC(C)(C)C5CC[C@]43C)[C@@H]12 (stereo not given in full) | 71 µM | 77.8 µM | 104 µM | 36.4 µM | 23.5 µM
C=C(C)[C@@H]1CC[C@]2(C(=O)OCCCCCCBr)CC[C@]3(C)[C@H](C[C@H]4OC(=O)C[C@@H](O)[C@]5(C)[C@@H]4[C@@]3(C)CC[C@H]5C(=C)C)[C@@H]12 | 75.7 µM | 27.6 µM | 21.8 µM | 12.3 µM | 16.1 µM
C=C(C)[C@@H]1CC[C@]2(C(=O)OCCCCCCCCCCn3ccnc3CC)CC[C@]3(C)[C@H](C[C@H]4OC(=O)C[C@@H](O)[C@]5(C)[C@@H]4[C@@]3(C)CC[C@H]5C(=C)C)[C@@H]12 | 30.9 µM | 15.1 µM | 9.93 µM | 4.36 µM | 13.9 µM
C=C(C)[C@@H]1CC[C@]2(C(=O)OCCCCn3cnc(C)c3)CC[C@]3(C)[C@H](C[C@@H](O)[C@@H]4[C@@]5(C)C(CC(=O)OC)OC(C)(C)C5CC[C@]43C)[C@@H]12 (stereo not given in full) | 65.6 µM | 35.4 µM | 38.9 µM | 19.9 µM | 25 µM
C=C(C)[C@@H]1CC[C@]2(C(=O)OCCCCCCn3cnc(C)c3)CC[C@]3(C)[C@H](C[C@H]4OC(=O)C[C@@H](O)[C@]5(C)[C@@H]4[C@@]3(C)CC[C@H]5C(=C)C)[C@@H]12 | 44.9 µM | 14.2 µM | 13.3 µM | 3.64 µM | 12.2 µM
C=C(C)[C@@H]1CC[C@]2(C(=O)OCCCCCn3ccnc3C)CC[C@]3(C)[C@H](C[C@H]4OC(=O)C[C@@H](O)[C@]5(C)[C@@H]4[C@@]3(C)CC[C@H]5C(=C)C)[C@@H]12 | 46 µM | 15.9 µM | 14.2 µM | 8.89 µM | 12.4 µM
C=C(C)[C@@H]1CC[C@]2(C(=O)OCCCCn3cncn3)CC[C@]3(C)[C@H](C[C@@H](O)[C@@H]4[C@@]5(C)C(CC(=O)OC)OC(C)(C)C5CC[C@]43C)[C@@H]12 (stereo not given in full) | 75.2 µM | 42.4 µM | 58.6 µM | 26.1 µM | 45.3 µM
C=C(C)[C@@H]1CC[C@]2(C(=O)OCCCCn3ccnc3)CC[C@]3(C)[C@H](C[C@H]4OC(=O)C[C@@H](O)[C@]5(C)[C@@H]4[C@@]3(C)CC[C@H]5C(=C)C)[C@@H]12 | 84.4 µM | 32.7 µM | 50.1 µM | 20.9 µM | 28.2 µM
C=C(C)[C@@H]1CC[C@]2(C(=O)OCCCCCn3ccnc3)CC[C@]3(C)[C@H](C[C@H]4OC(=O)C[C@@H](O)[C@]5(C)[C@@H]4[C@@]3(C)CC[C@H]5C(=C)C)[C@@H]12 | 45.6 µM | 25.2 µM | 32.3 µM | 16.1 µM | 11.8 µM
C=C(C)[C@@H]1CC[C@]2(C(=O)OCCCCBr)CC[C@]3(C)[C@H](C[C@H]4OC(=O)C[C@@H](O)[C@]5(C)[C@@H]4[C@@]3(C)CC[C@H]5C(=C)C)[C@@H]12 | > 200 µM | 89 µM | 200 µM | 124 µM | 82.2 µM
